The test system of one assay is NASH. In words: L-DOPA plus pantethine with or without curcumin in high fat high fructose diet mice, Study 2 (Example 4). Type of assay: in vivo. As to conditions: vehicle value assigned 1.0 (maximum score); 3 weeks treatment. From the text:
After 3 weeks on the test diet, animals were sacrificed for analyses of body weight, body fat, blood glucose, and liver physiology.

In the next assay the test system is NASH Mice. In words: Treatment of NASH mice (high fat high fructose diet) with bromocriptine citrate plus pantethine with or without curcumin, Study 1. The class given is in vivo. The note with it: vehicle value assigned 1.0 (maximum score); 6 weeks treatment. On the procedure:
The curcumin-phosphatidylcholine mixture is stirred until clear while being heated to between 50° C. to 60C. Optionally, add up to 10 ml of water and stir until solution is homogeneous)) (100 mg/kg). […] After 6 weeks on the test diet and treatment, animals were sacrificed for analyses of body weight, body fat, blood glucose, and liver physiology.

Molecules are shown by their SMILES.

In the case of `N[C@@H](Cc1ccc(O)c(O)c1)C(=O)O` [L-DOPA, 3,4-dihydroxyphenylalanine], the “NASH propensity score (liver weight x body weight x body fat x blood glucose level)” value with NASH is reported as 0.61.

For the molecule `CC(C)C[C@H]1C(=O)N2CCC[C@H]2[C@]2(O)O[C@](NC(=O)[C@@H]3C=C4c5cccc6[nH]c(Br)c(c56)C[C@H]4N(C)C3)(C(C)C)C(=O)N12` [bromocriptine, 2-bromo-α-ergocriptine], the “NASH propensity scale score (liver weight x body weight x body fat x liver triglyceride content x blood glucose level)” value in the assay on NASH Mice worked out at 0.46.

The values are drawn from patent US20250375406A1, “TREATMENT OF NON-ALCOHOLIC STEATOHEPATITIS AND NON-ALCOHOLIC FATTY LIVER DISEASE” (VEROSCIENCE LLC, priority 2022, published 2025).
